According to US12559461B2, “Antibiotic adjuvant compounds” (UNIVERSITY OF NOTRE DAME DU LAC, priority 2020, dated 2026):
Values after ≈ are worked out from the molar mass of the structure shown. “Also recorded” adds a separate entry of the source. Like-named read-outs stand apart in the source and are kept apart here. One block for each compound: values may come before it.

Tests used:
AB5075 [1] = experiment: Evolution of clarithromycin resistance by serial passage; type: cell-based, Acinetobacter baumannii
Method: A. baumannii 5075 was grown in CAMHB overnight then subcultured (5×10^5 CFU/mL) in 6 mL of fresh CAMHB. Adjuvant was added into this 6-mL subculture at either 10 or 30 μM concentrations. […] This was serially repeated for a period of nine days.

[2] = test system: A. baumannii isolates (23 strains); experiment: Minimum inhibitory concentration against AB isolates; type: cell-based, Acinetobacter baumannii; details: CLR alone
Method: (§1) Broth microdilution method for MIC determination. Day cultures (6 h) of each bacterial strain in cation adjusted Mueller Hinton II broth (CAMHB, Fisher Scientific U.S.) were subcultured to 5×10^5 CFU/mL in CAMHB. Aliquots (1 mL) were placed in culture tubes and compound was added from 10 mM stock samples in DMSO, such that compound concentration equaled highest concentration tested (200 μM). Samples were then aliquoted (200 μL) into the first wells of a 96-well plate, with all remaining wells being filled with 100 μL of initial bacterial subculture. Row one wells were mixed five times, before 100 μL was transferred to row two. Row two was then mixed five times, and 100 μL was transferred to row three. This process was repeated until the final row had been mixed; this served to serially dilute the compound. Plates were then covered with GLAD Press n'Seal and incubated under stationary conditions at 37° C. for 16 h. MIC values were then recorded as the lowest concentration at which no bacterial growth was observed.

AB5075 [3] = experiment: Broth microdilution clarithromycin (CLR) potentiation and dose-response of adjuvant; type: cell-based, Acinetobacter baumannii
Method: (§2) Bacterial Strains and Antimicrobial Agents. Acinetobacter baumannii clinical isolate 5075 was obtained from Dr. Colin Manoil at the University of Washington. Colonies were grown on lysogeny broth (LB) agar. Cation-adjusted Mueller-Hinton Broth (CAMHB) (catalog number 212322) were purchased from BD Diagnostics. LB broth was purchased from Fisher Scientific (catalog number BP9722-2). […] Colistin sulfate salt (catalog number C4461) was purchased from Sigma Aldrich. All assays were completed in duplicate and repeated at least two separate times. All compounds were dissolved as their HCl salts in molecular biology grade DMSO as 10 or 100 mM stock solutions and stored at −20° C. Colistin was dissolved in sterile water while clarithromycin was dissolved in molecular biology grade DMSO.
(§3) Broth microdilution method for antibiotic potentiation. Day cultures (6 h) of bacteria in CAMHB were subcultured to 5×10^5 CFU/mL in CAMHB. Aliquots (4 mL) were placed in culture tubes and dosed with compound from 10 mM stock samples to give the desired concentration of the compound to be tested against the particular bacterial strain; this insured non-toxic DMSO concentrations ≤0.3% in each well. 1 mL of the resulting solution was placed in a separate culture and dosed with antibiotic at the highest concentration to be tested. Bacteria treated with antibiotic alone served as the control. Row one of a 96-well plate was filled with 200 μL of the antibiotic/2-AI solution, and rows 2-12 were filled with 100 μL each of the remaining 4 mL of bacterial subculture containing adjuvant at the desired concentration, except for the control lane which contained only bacterial subculture. Row one was then mixed five times, and 100 μL was transferred to row two, which was then mixed five times before being transferred to row three. This process was repeated until all rows had been mixed, except for row twelve which would have only 2-AI to serve as a control to monitor potential toxicity. The 96-well plate was then covered in Glad Press n'Seal and incubated under stationary conditions at 37° C. for 16 h. MIC values were determined as the lowest concentration at which no bacterial growth was observed, and fold reductions were determined by comparison to antibiotic control lane.
(§4) Dose-response of Adjuvant Assay. The procedure for ‘broth microdilution method for antibiotic potentiation’ was followed using 4 mL aliquots of adjuvant at various concentrations: 0, 5, 7.5, 10, 15, 20, 25, and 30 μM.

AB5075 [4] = details: previously reported, cited from earlier work
AB5075 [5] = details: previously reported, cited from earlier work; remark: listed apart in the source
AB5075 [6] = details: compound alone, previously reported; cited from earlier work
AB5075 [7] = experiment: Broth microdilution MIC of compound alone (standalone toxicity); type: cell-based, Acinetobacter baumannii
Method: as §2, §1

[8] = test system: E. coli biofilm formation; details: Bioorg Med Chem Lett 2010; cited from earlier work
AB5075 [9] = experiment: Colistin MIC in presence of adjuvant (broth microdilution antibiotic potentiation); type: cell-based, Acinetobacter baumannii
Method: as §2, §3, §4

[10] = passaging with CLR and 30 μM adjuvant 1, day 2 and day 9, adjuvant 1 at 30 μM

- CLR MIC (AB5075 [3]; compound tested at 7.5 μM): 8 µg/mL
- CLR MIC (AB5075 [3]; compound tested at 10 μM): 4 µg/mL
- Fold Reduction of CLR MIC (AB5075 [3]; compound tested at 10 μM): eight
- CLR MIC (AB5075 [3]; compound tested at 20 μM): 0.5 µg/mL
- Fold Reduction of CLR MIC (AB5075 [3]; compound tested at 30 μM): 64 fold
- Colistin MIC (AB5075 [9]; compound tested at 30 μM): 4 µg/mL
Compound: Cl.Nc1nc(-c2ccc(NC(=O)c3ccc(Cl)c(Cl)c3)cc2)c[nH]1 [Compound 4r]
- MIC (AB5075 [7]): 100 µM

- CLR MIC (AB5075 [3]; compound tested at 10 μM): 32 µg/mL
- CLR MIC (AB5075 [3]; compound tested at 20 μM): 16 µg/mL
- CLR MIC (AB5075 [3]; compound tested at 25 μM): 8 µg/mL
- Colistin MIC (AB5075 [9]; compound tested at 30 μM): 0.25 µg/mL
Compound: Cl.Nc1nc(-c2ccc(NC(=O)c3c(Cl)cc(Cl)cc3Cl)cc2)c[nH]1 [Compound 4s]
- MIC (AB5075 [7]): 100 µM

- CLR MIC (AB5075 [3]; compound tested at 10 μM): 32 µg/mL
- CLR MIC (AB5075 [3]; compound tested at 20 μM): 8 µg/mL
- CLR MIC (AB5075 [3]; compound tested at 30 μM): 1 µg/mL
- Colistin MIC (AB5075 [9]; compound tested at 30 μM): 1 µg/mL
Compound: Cl.Nc1nc(-c2ccc(NC(=O)c3cc(F)c(F)c(F)c3)cc2)c[nH]1 [Compound 4v]
- MIC (AB5075 [7]): 100 µM

Further lines, the compound ahead of its results:

Compound: CC[C@H]1OC(=O)[C@H](C)[C@@H](O[C@H]2C[C@@](C)(OC)[C@@H](O)[C@H](C)O2)[C@H](C)[C@@H](O[C@@H]2O[C@H](C)C[C@H](N(C)C)[C@H]2O)[C@](C)(OC)C[C@@H](C)C(=O)[C@H](C)[C@@H](O)[C@]1(C)O [CLR, clarithromycin, reference compound]
- CLR MIC (AB5075 [1]; CLR-alone exposure of AB5075, day 0): 32 µg/mL
- CLR MIC (AB5075 [1]; CLR-alone exposure of AB5075, day 4): 128 µg/mL
- CLR MIC (AB5075 [1]; CLR-alone exposure of AB5075, day 6): 512 µg/mL
- CLR MIC (AB5075 [1]; CLR-resistant AB5075 mutant from CLR-alone passaging, no adjuvant): 512 µg/mL
- CLR MIC (AB5075 [1]; passaging with CLR and 30 μM adjuvant 1, day 2 and day 9, without adjuvant): 32 µg/mL
- CLR MIC (AB5075 [1]; serial passage with CLR + adjuvant 1 (30 μM), day 2, compound 1 tested at 0 μM): 16 µg/mL
- CLR MIC (AB5075 [1]; serial passage with CLR + adjuvant 1 (30 μM), day 4, compound 1 tested at 0 μM): 32 µg/mL
- CLR MIC (AB5075 [1]; serial passage with CLR + adjuvant 1 (30 μM), day 6, compound 1 tested at 0 μM): 32 µg/mL
- CLR MIC (AB5075 [1]; serial passage with CLR + adjuvant 1 (30 μM), day 8, compound 1 tested at 0 μM): 32 µg/mL
- CLR MIC (AB5075 [1]; serial passage with CLR + adjuvant 1 (30 μM), day 10, compound 1 tested at 0 μM): 32 µg/mL
- CLR MIC ([2]; A. baumannii strain 3560): 32 µg/mL
- CLR MIC ([2]; A. baumannii strain 3785): 64 µg/mL
- CLR MIC ([2]; A. baumannii strain 3806): 16 µg/mL
- CLR MIC ([2]; A. baumannii strain 3927): 32 µg/mL
- CLR MIC ([2]; A. baumannii strain 4025): 64 µg/mL
- CLR MIC ([2]; A. baumannii strain 4026): 64 µg/mL
- CLR MIC ([2]; A. baumannii strain 4027): 64 µg/mL
- CLR MIC ([2]; A. baumannii strain 4052): 32 µg/mL
- CLR MIC ([2]; A. baumannii strain 4269): 32 µg/mL
- CLR MIC ([2]; A. baumannii strain 4448): 32 µg/mL
- CLR MIC ([2]; A. baumannii strain 4456): 32 µg/mL
- CLR MIC ([2]; A. baumannii strain 4490): 32 µg/mL
- CLR MIC ([2]; A. baumannii strain 4498): 64 µg/mL
- CLR MIC ([2]; A. baumannii strain 4795): 32 µg/mL
- CLR MIC ([2]; A. baumannii strain 4857): 64 µg/mL
- CLR MIC ([2]; A. baumannii strain 4878): 32 µg/mL
- CLR MIC ([2]; A. baumannii strain 4957): 32 µg/mL
- CLR MIC ([2]; A. baumannii strain 4991): 32 µg/mL
- CLR MIC ([2]; A. baumannii strain 5001): 32 µg/mL
- CLR MIC ([2]; A. baumannii strain 5197): 64 µg/mL
- CLR MIC ([2]; A. baumannii strain 5256): 32 µg/mL
- CLR MIC ([2]; A. baumannii strain 5711): 64 µg/mL
- CLR MIC ([2]; A. baumannii strain 8967): 16 µg/mL
- CLR MIC (AB5075 [3]; CLR alone, no adjuvant): 32 µg/mL
- CLR MIC (AB5075 [4]; CLR alone): 32 µg/mL

Compound: Cl.Nc1nc(-c2ccc(NC(=O)c3cc(Cl)cc(Cl)c3)cc2)c[nH]1 [Compound 1, N-(4-(2-amino-1H-imidazol-4-yl)phenyl)-3,5-dichlorobenzamide hydrochloride]
- Colistin MIC (AB5075 [5]; compound at 30 μM): 4 µg/mL
- suppression of evolution of CLR resistance (AB5075 [1]; AB5075 passaged with CLR and 30 μM adjuvant, nine-day course, hydrochloride): suppressed the increase in macrolide resistance; also recorded: suppresses the acquisition of CLR resistance
- CLR MIC (AB5075 [1]; CLR-resistant AB5075 mutant from CLR-alone passaging, compound at 30 μM): 2 µg/mL
- CLR MIC (AB5075 [1]; [10]): 0.25 µg/mL
- Fold Reduction of CLR MIC (AB5075 [1]; [10]): 128 fold
- CLR MIC (AB5075 [1]; serial passage with CLR + adjuvant 1 (30 μM), day 2, compound 1 tested at 30 μM): 0.25 µg/mL
- CLR MIC (AB5075 [1]; serial passage with CLR + adjuvant 1 (30 μM), day 4, compound 1 tested at 30 μM): 0.25 µg/mL
- CLR MIC (AB5075 [1]; serial passage with CLR + adjuvant 1 (30 μM), day 6, compound 1 tested at 30 μM): 0.25 µg/mL
- CLR MIC (AB5075 [1]; serial passage with CLR + adjuvant 1 (30 μM), day 8, compound 1 tested at 30 μM): ≤0.5 µg/mL
- CLR MIC (AB5075 [1]; serial passage with CLR + adjuvant 1 (30 μM), day 10, compound 1 tested at 30 μM): 0.25 µg/mL
- Fold Reduction of CLR MIC (AB5075 [4]; compound at 10 μM): 16 fold

Compound: Nc1nc(-c2ccc(NC(=O)c3cc(Br)cc(Br)c3)cc2)c[nH]1 [Compound 2]
- Colistin MIC (AB5075 [5]; compound at 30 μM): 4 µg/mL
- MIC (AB5075 [6]): 100 µM (≈ 43.6 µg/mL)
- Fold Reduction of CLR MIC (AB5075 [4]; compound at 10 μM): 16 fold
- Fold Reduction of CLR MIC (AB5075 [4]; compound at 30 μM): 128 fold

Compound: Nc1nc(-c2ccc(NC(=O)c3cc(F)cc(F)c3)cc2)c[nH]1 [Compound 4k]
- MIC (AB5075 [7]; Acinetobacter baumannii): > 200 µM
- CLR MIC (AB5075 [3]; compound tested at 30 μM): 4 µg/mL
- Fold Reduction of CLR MIC (AB5075 [3]; compound tested at 30 μM): eight-fold
- adjuvant activity (CLR potentiation), rank by amide linker position (AB5075 [3]; dosed at 30 μM): highest adjuvant activity
- biofilm inhibition activity [8]: lead biofilm inhibitor

Compound: Colistin sulfate salt [reference compound]
- Colistin MIC (AB5075 [5]; colistin alone): 1 µg/mL
- Colistin MIC (AB5075 [9]; colistin alone, no adjuvant): 0.5 µg/mL
